Reference: patent US6566338B1, “Caspase inhibitors for the treatment and prevention of chemotherapy and radiation therapy induced cell death” (Cytovia, Inc., priority 1999, dated 2003)

What was measured:
Jurkat T leukemia cells = assay: Propidium iodide uptake assay of apoptosis induced by chemotherapeutic agents or UV irradiation in Jurkat T cells; type: cell-based; settings: 18 h
Description: Jurkat T leukemia cells were grown in RPMI 1640 media (Life Technologies, Inc.)+10% FCS (Sigma Chemical Company) in a 5% CO2 -95% humidity incubator at 37° C., and maintained at a cell density between 4 and 8×10^5 cells/ml. 1×10^6 cells were treated with Doxorubicin (1 μM) or Paclitaxel (20 μM) or UV irradiation (40 J/m^2) with or without the caspase inhibitor Z-VD-fmk (10 μM) and incubated at 37° C. for 18 h. As a control, cells were also incubated with DMSO. At 18 h cells were observed under phase contrast microscopy to visualize any morphological changes induced by the apoptotic stimuli. Cells were assessed for viability by a propidium iodide uptake assay. Briefly, 20 μl of propidium solution containing 100 μg/ml of propidium iodide was added to 200 μl of cells and transferred to 12×75mm polystyrene tubes and analyzed on a flow cytometer. All flow cytometry analyses were performed on FACScalibur (Becton Dickinson) using CellQuest analysis software.
FIGS. 1A-C depict photographs of Jurkat cells: FIG. 1A, DMSO treated control cells; FIG. 1B, cells treated with doxorubicin (1 μM); FIG. 1C, cells treated with doxorubicin (1 μM) and Z-VD-fmk (10 μM). FIG. 1D depicts a bar graph showing percentage of cell apoptosis as measured by a propidium iodide uptake assay: a, DMSO treated control cells; b, cells treated with doxorubicin; c, cells treated with doxorubicin and Z-VD-fmk.
FIGS. 2A-C depict photographs of Jurkat cells: FIG. 2A, DMSO treated control cells; FIG. 2B, cells treated with paclitaxel (20 μM); FIG. 2C, cells treated with paclitaxel (20 μM) and Z-VD-fink (10 μM). FIG. 2D depicts a bar graph showing percentage of cell apoptosis as measured by a propidium iodide uptake assay: a, DMSO treated control cells; b, cells treated with paclitaxel; c, cells treated with paclitaxel and Z-VD-fink.
FIGS. 3A-C depict photographs of Jurkat cells: FIG. 3A, DMSO treated control cells; FIG. 3B, cells treated with UV irradiation (40 J/m^2); FIG. 3C, cells treated with UV irradiation (40 J/m2) and Z-VD-fmk (10 μM). […]

[1] = test system: oral mucositis induced by acute irradiation in hamsters; assay: Radiation-induced oral mucositis in hamsters (acute radiation model, mucositis scoring); type: in vivo, Golden Syrian hamsters; settings: for days with ulcerations (animal days with mucositis score of 3 or more) / daily mucositis scores, rank sum analysis vs vehicle control / reduction in ulceration vs vehicle control: day −2 to day 16; for days with ulcerations (animal days with mucositis score of 3 or more): vehicle control 56 days
Excerpt: A hamster model of chemotherapy-induced mucositis and, more recently, a model of radiation-induced mucositis has been developed (Sonis S. et al. Oral Surg. Oral. Med. Oral Pathol. 69:437-443 (1990) and Sonis S. et al. Cancer, 85:2103-13 (1999)). In the latter model, specific doses of acute radiation are targeted to the designated mucosa, with protection of other areas by a customized lead shield.
The objective of this study was to assess the effect of the topical and IP administration of (3R,S)-5-fluoro-3-[(2S)-3-methyl-1-oxo-2-(phenylcarbam-oyloxy)butyl]amino-4-oxo-pentanoic acid (a caspase inhibitor described in U.S. Application Ser. Nos. 60/151,077 and 60/158,373), in attenuating the development and progress of oral mucositis induced by acute irradiation in hamsters. Mucositis scores in hamsters receiving different doses of the compound were compared to those in hamsters receiving vehicle control, in order to detect statistically significant differences in the onset, duration or severity of the disorder.
Thirty-two (32) hamsters were randomly divided into four treatment groups with eight (8) animals per group. Each group was assigned a different treatment as follows:
Group 1: Vehicle control—topical vehicle control, tid (3 times daily), day −2 to day 16.
Group 2: Test compound at 20 mg/kg, IP once per day, day −2 to day 16.
Group 3: Test compound at 0.36 mg/ml (0.2 ml), topical, tid, day −2 to day 16.
Group 4: Test compound at 0.072 mg/ml (0.2 ml), topical, tid, day −2 to day 16.
viii) Starting on day 6 and continuing every second day thereafter (days 8, 10, 12, 14, 16, 18, 20, 22, 24, 26 & 28), each animal was photographed and evaluated for mucositis scoring.
dose of radiation (35 Gy/dose) was administered to all animals on Day 0. Radiation was generated with a 250 kilovolt potential (15-mA) source at a focal distance of 50 cm, hardened with a 0.35 mm Cu filtration system. Irradiation targeted the left buccal pouch mucosa at a rate of 121.5 cGy/minute. Prior to irradiation, animals were anesthetized with an intraperitoneal injection of sodium pentobarbital (80 mg/kg). The left buccal pouch was everted, fixed and isolated using a lead shield.
(§1) Topical dosing of animals was done three times per day. For topical treatments, a needleless tuberculin syringe, containing 0.2 ml of the test compound in 0.05M Tris (pH 8.0), was inserted into the left cheek pouch and the drug deposited into the pouch. Intraperitoneal injections of the compound were done once a day at a dose of 20 mg/kg and a drug concentration of 3-6 mg/ml in 0.05M Tris (pH 8.0). Dosing began on day −2 for all groups. In all groups treatment continued until day 16.
Mucositis Evaluation The mucositis score, weight change and survival were measured as outcomes in this study. For the evaluation of mucositis, the animals were anesthetized with inhalation anesthetics, and the left pouch everted. Mucositis was scored visually by comparison to a validated photographic scale, ranging from 0 for normal, to 5 for severe ulceration (clinical scoring). In descriptive terms, this scale is defined as follows: […]
A score of 1-2 is considered to represent a mild stage of the disease, whereas a score of 3-5 is considered to indicate moderate to severe mucositis. Following visual scoring, a photograph was taken of each animal's mucosa using a standardized technique. At the conclusion of the experiment, all films were developed and the photographs randomly numbered. At least two independent trained observers graded the photographs in blinded fashion using the above described scale (blinded scoring).

[2] = Weight change and survival in the hamster mucositis study; type: in vivo, Golden Syrian hamsters; settings: at the doses used: 20 mg/kg IP; 0.36 and 0.072 mg/ml topical
Excerpt: i) Every day for the period of the study (day −2 to day 28), each animal was weighed and its survival recorded (to accommodate the schedules of the study site weights were taken every other day starting on day 17 and continuing to day 28).
Male Golden Syrian hamsters (Charles River Laboratories or Harlan Sprague Dawley), aged 5 to 6 weeks, with body weights of approximately 90 g at project commencement, were used. Animals were individually numbered using an ear punch and housed in small groups of 2 animals per cage. Animals were acclimatized for at least one week prior to project commencement. During this period, the animals were observed daily in order to reject animals that present poor condition.
as §1, with “Dosing began on day −2 for all groups. In all groups treatment continued until day 16.” left out
Mucositis Evaluation The mucositis score, weight change and survival were measured as outcomes in this study. […] Mucositis was scored visually by comparison to a validated photographic scale, ranging from 0 for normal, to 5 for severe ulceration (clinical scoring). […]

**Q.** For `CC(C)[C@H](NC(=O)OCc1ccccc1)C(=O)NC(CC(=O)O)C(=O)CF` (some centres unmarked) [Z-VD-fmk], which “doxorubicin induced cell death in Jurkat cells” value (Jurkat T leukemia cells; Doxorubicin 1 μM, Z-VD-fmk 10 μM, FIGS. 1A-D) is on record?
**A.** blocks doxorubicin induced cell death

**Q.** What about the “paclitaxel induced cell death in Jurkat cells” value (Jurkat T leukemia cells; Paclitaxel 20 μM, Z-VD-fmk 10 μM, FIGS. 2A-D) of the same molecule?
**A.** blocks paclitaxel induced cell death

**Q.** What about the “UV irradiation induced cell death in Jurkat cells” value (Jurkat T leukemia cells; UV irradiation 40 J/m^2, Z-VD-fmk 10 μM, FIGS. 3A-D) of the same molecule?
**A.** blocks UV irradiation induced cell death

**Q.** Which “days with ulcerations (animal days with mucositis score of 3 or more)” value (“days with ulcerations” for short) ([1]; 0.072 mg/ml (0.2 ml) topical tid) does the source give for `CC(C)[C@H](OC(=O)Nc1ccccc1)C(=O)NC(CC(=O)O)C(=O)CF` (stereo partly drawn) [test compound, (3R,S)-5-Fluoro-3-[(2S)-3-methyl-1-oxo-2-(phenylcarbamoyloxy)butyl]amino-4-oxo-pentanoic Acid] here?
**A.** 42 days

**Q.** What about the “daily mucositis scores, rank sum analysis vs vehicle control” value ([1]; 0.072 mg/ml topical tid) of the same molecule?
**A.** Significance was achieved only on day 18

**Q.** And the “reduction in ulceration vs vehicle control” value (from here on “reduction in ulceration”) ([1]; 0.072 mg/ml topical tid, p=0.061, not significant)?
**A.** 25%

**Q.** And the “days with ulcerations” value ([1]; 0.36 mg/ml (0.2 ml) topical tid)?
**A.** 27 days

**Q.** And the “daily mucositis scores, rank sum analysis vs vehicle control” value ([1]; 0.36 mg/ml topical tid)?
**A.** significant reduction of mucositis on days 18, 20, 22 & 26

**Q.** And the “reduction in ulceration” value ([1]; 0.36 mg/ml topical tid, p<0.001)?
**A.** 51.8%

**Q.** And the “daily mucositis scores, rank sum analysis vs vehicle control” value ([1]; 20 mg/kg IP once per day)?
**A.** significant reduction in mucositis severity on days 20 and 22

**Q.** And the “reduction in ulceration” value ([1]; 20 mg/kg IP once per day, p=0.068, not significant)?
**A.** 24.8%

**Q.** And the “days with ulcerations” value ([1]; 20 mg/kg IP once per day)?
**A.** 39 days

**Q.** And the onset of ulceration ([1]; day 0 to day 16, all treatment groups)?
**A.** no apparent reduction in the onset of ulceration

**Q.** And the “systemic toxicity (mortality due to the treatment)” value [2]?
**A.** no systemic toxicity
